Laboratory results taken from patent US11807644B2 (PMV Pharmaceuticals, Inc., priority 2020, dated 2023).

The molecules below were run against T1, recombinant His-tag Y220C p53 DBD protein (Homo sapiens, UniProt P04637, Y220C) (assay: In vitro DNA binding activity assay (TR-FRET): binding of His-tag Y220C p53 DBD to biotin-labeled consensus DNA). Conditions: SC150 = concentration to increase DNA binding by […], His-tag Y220C p53 DBD, biotin-labeled consensus DNA.
T1 construct: recombinant His-tag Y220C p53 DBD protein (amino acids #˜94-312)
Assay type: biochemical

SMILES	Y220C SC150 (μM)
CCn1cccc1C(=O)NCc1nc(-c2cc3c(N[C@@H]4CCN(C)C[C@@H]4F)cccc3n2CC(F)(F)F)no1 [Compound 534B, 1-ethyl-N-{[3-(4-{[(3S,4R)-3-fluoro-1-methylpiperidin-4-yl]amino}-1-(2,2,2-trifluoroethyl)-1H-indol-2-yl)-1,2,4-oxadiazol-5-yl]methyl}-1H-pyrrole-2-carboxamide]	* (* = 0 μM ≤ SC150 < 0.1 μM)
COCCN(C)c1nc(C(=O)NCc2nc(-c3cc4c(N[C@@H]5CCN(C)C[C@@H]5F)cccc4n3CC(F)(F)F)no2)cs1 [Compound 536B, N-{[3-(4-{1[(3S,4R)-3-fluoro-1-methylpiperidin-4-yl]amino}-1-(2,2,2-trifluoroethyl)-1H-indol-2-yl)-1,2,4-oxadiazol-5-yl]methyl}-2-[(2-methoxyethyl)(methyl)amino]-1,3-thiazole-4-carboxamide]	* (* = 0 μM ≤ SC150 < 0.1 μM)
COC[C@@H]1CCCN1c1cc(C(=O)NCc2nc(-c3cc4c(N[C@@H]5CCN(C)C[C@@H]5F)cccc4n3CC(F)(F)F)no2)cs1 [Compound 537B, N-{[3-(4-{[(3S,4R)-3-fluoro-1-methylpiperidin-4-yl]amino}-1-(2,2,2-trifluoroethyl)-1H-indol-2-yl)-1,2,4-oxadiazol-5-yl]methyl}-5-[(2S)-2-(methoxymethyl)pyrrolidin-1-yl]thiophene-3-carboxamide]	* (* = 0 μM ≤ SC150 < 0.1 μM)
COCCn1cccc1C(=O)NCc1nc(-c2cc3c(N[C@@H]4CCN(C)C[C@@H]4F)cccc3n2CC(F)(F)F)no1 [Compound 538B, N-{[3-(4-{[(3S,4R)-3-fluoro-1-methylpiperidin-4-yl]amino}-1-(2,2,2-trifluoroethyl)-1H-indol-2-yl)-1,2,4-oxadiazol-5-yl]methyl}-1-(2-methoxyethyl)-1H-pyrrole-2-carboxamide]	* (* = 0 μM ≤ SC150 < 0.1 μM)
CN1CC[C@@H](Nc2cccc3c2cc(-c2noc(CNC(=O)c4cccn4CCF)n2)n3CC(F)(F)F)[C@@H](F)C1 [Compound 540B, N-{[3-(4-{[(3S,4R)-3-fluoro-1-methylpiperidin-4-yl]amino}-1-(2,2,2-trifluoroethyl)-1H-indol-2-yl)-1,2,4-oxadiazol-5-yl]methyl}-1-(2-fluoroethyl)-1H-pyrrole-2-carboxamide]	* (* = 0 μM ≤ SC150 < 0.1 μM)
CN1CC[C@@H](Nc2cccc3c2cc(-c2noc(C(=O)NCc4ccccc4)n2)n3CC(F)(F)F)[C@@H](F)C1 [Compound 544B, N-benzyl-3-(4-{[(3S,4R)-3-fluoro-1-methylpiperidin-4-yl]amino}-1-(2,2,2-trifluoroethyl)-1H-indol-2-yl)-1,2,4-oxadiazole-5-carboxamide]	** (** = 0.1 μM ≤ SC150 < 0.5 μM)
CN1CC[C@@H](Nc2cccc3c2cc(-c2noc(C(=O)NCC4CC4)n2)n3CC(F)(F)F)[C@@H](F)C1 [Compound 545B, N-(cyclopropylmethyl)-3-(4-{[(3S,4R)-3-fluoro-1-methylpiperidin-4-yl]amino}-1-(2,2,2-trifluoroethyl)-1H-indol-2-yl)-1,2,4-oxadiazole-5-carboxamide]	** (** = 0.1 μM ≤ SC150 < 0.5 μM)
CN1CC[C@@H](Nc2cccc3c2cc(-c2noc(C(=O)NCc4cnn(C)c4)n2)n3CC(F)(F)F)[C@@H](F)C1 [Compound 546B, 3-(4-{[(3S,4R)-3-fluoro-1-methylpiperidin-4-yl]amino}-1-(2,2,2-trifluoroethyl)-1H-indol-2-yl)-N-[(1-methyl-1H-pyrazol-4-yl)methyl]-1,2,4-oxadiazole-5-carboxamide]	** (** = 0.1 μM ≤ SC150 < 0.5 μM)
CN1CC[C@@H](Nc2cccc3c2cc(-c2noc(CNC(=O)c4cccc(C(C)(C)O)c4)n2)n3CC(F)(F)F)[C@@H](F)C1 [Compound 549B, N-{[3-(4-{[(3S,4R)-3-fluoro-1-methylpiperidin-4-yl]amino}-1-(2,2,2-trifluoroethyl)-1H-indol-2-yl)-1,2,4-oxadiazol-5-yl]methyl}-3-(2-hydroxypropan-2-yl)benzamide]	* (* = 0 μM ≤ SC150 < 0.1 μM)
CN1CC[C@@H](Nc2cccc3c2cc(-c2noc(CNC(=O)c4ccnc(C(C)(C)O)c4)n2)n3CC(F)(F)F)[C@@H](F)C1 [Compound 550B, N-{[3-(4-{[(3S,4R)-3-fluoro-1-methylpiperidin-4-yl]amino}-1-(2,2,2-trifluoroethyl)-1H-indol-2-yl)-1,2,4-oxadiazol-5-yl]methyl}-2-(2-hydroxypropan-2-yl)pyridine-4-carboxamide]	* (* = 0 μM ≤ SC150 < 0.1 μM)
COCc1cc(C(=O)NCc2nc(-c3cc4c(N[C@@H]5CCN(C)C[C@@H]5F)cccc4n3CC(F)(F)F)no2)cc(C)n1 [Compound 551B, N-{[3-(4-{[(3S,4R)-3-fluoro-1-methylpiperidin-4-yl]amino}-1-(2,2,2-trifluoroethyl)-1H-indol-2-yl)-1,2,4-oxadiazol-5-yl]methyl}-2-(methoxymethyl)-6-methylpyridine-4-carboxamide]	* (* = 0 μM ≤ SC150 < 0.1 μM)
CN1CC[C@@H](Nc2cccc3c2cc(-c2cc(CNC(=O)c4ccn(C(C)(C)C)c4)on2)n3CC(F)(F)F)[C@@H](F)C1 [Compound 553B, 1-tert-butyl-N-{[3-(4-{[(3S,4R)-3-fluoro-1-methylpiperidin-4-yl]amino}-1-(2,2,2-trifluoroethyl)-1H-indol-2-yl)-1,2-oxazol-5-yl]methyl}-1H-pyrrole-3-carboxamide]	* (* = 0 μM ≤ SC150 < 0.1 μM)
CN1CC[C@@H](Nc2cccc3c2cc(-c2cc(CNC(=O)c4cnn(C(C)(C)C)c4)on2)n3CC(F)(F)F)[C@@H](F)C1 [Compound 554B, 1-tert-butyl-N-{[3-(4-{[(3S,4R)-3-fluoro-1-methylpiperidin-4-yl]amino}-1-(2,2,2-trifluoroethyl)-1H-indol-2-yl)-1,2-oxazol-5-yl]methyl}-1H-pyrazole-4-carboxamide]	* (* = 0 μM ≤ SC150 < 0.1 μM)
CN1CC[C@@H](Nc2cccc3c2cc(-c2cc(CNC(=O)c4csc(C(C)(C)O)c4)on2)n3CC(F)(F)F)[C@@H](F)C1 [Compound 555B, N-{[3-(4-{[(3S,4R)-3-fluoro-1-methylpiperidin-4-yl]amino}-1-(2,2,2-trifluoroethyl)-1H-indol-2-yl)-1,2-oxazol-5-yl]methyl}-5-(2-hydroxypropan-2-yl)thiophene-3-carboxamide]	* (* = 0 μM ≤ SC150 < 0.1 μM)
CN1CC[C@@H](Nc2cccc3c2cc(-c2noc(CNC(=O)c4cncn4CCF)n2)n3CC(F)(F)F)[C@@H](F)C1 [Compound 556B, N-{[3-(4-{[(3S,4R)-3-fluoro-1-methylpiperidin-4-yl]amino}-1-(2,2,2-trifluoroethyl)-1H-indol-2-yl)-1,2,4-oxadiazol-5-yl]methyl}-1-(2-fluoroethyl)-1H-imidazole-5-carboxamide]	* (* = 0 μM ≤ SC150 < 0.1 μM)

Second part, the molecule after the results:

Y220C SC150 (μM)	SMILES
* (* = 0 μM ≤ SC150 < 0.1 μM)	CC(C)Cn1cccc1C(=O)NCc1nc(-c2cc3c(N[C@@H]4CCN(C)C[C@@H]4F)cccc3n2CC(F)(F)F)no1 [Compound 535B, N-{[3-(4-{[(3S,4R)-3-fluoro-1-methylpiperidin-4-yl]amino}-1-(2,2,2-trifluoroethyl)-1H-indol-2-yl)-1,2,4-oxadiazol-5-yl]methyl}-1-(2-methylpropyl)-1H-pyrrole-2-carboxamide]
* (* = 0 μM ≤ SC150 < 0.1 μM)	CC(C)c1nc(C(=O)NCc2nc(-c3cc4c(N[C@@H]5CCN(C)C[C@@H]5F)cccc4n3CC(F)(F)F)no2)cn1C [Compound 539B, N-{[3-(4-{[(3S,4R)-3-fluoro-1-methylpiperidin-4-yl]amino}-1-(2,2,2-trifluoroethyl)-1H-indol-2-yl)-1,2,4-oxadiazol-5-yl]methyl}-1-methyl-2-(propan-2-yl)-1H-imidazole-4-carboxamide]
* (* = 0 μM ≤ SC150 < 0.1 μM)	CN1CC[C@@H](Nc2cccc3c2cc(-c2noc(CNC(=O)c4cn5c(n4)CCCC5)n2)n3CC(F)(F)F)[C@@H](F)C1 [Compound 541B, N-{[3-(4-{[(3S,4R)-3-fluoro-1-methylpiperidin-4-yl]amino}-1-(2,2,2-trifluoroethyl)-1H-indol-2-yl)-1,2,4-oxadiazol-5-yl]methyl}-5H,6H, 7H,8H-imidazo[1,2-a]pyridine-2-carboxamide]
* (* = 0 μM ≤ SC150 < 0.1 μM)	CN1CC[C@@H](Nc2cccc3c2cc(-c2noc(CNC(=O)c4ccc(C(C)(C)C)n4C)n2)n3CC(F)(F)F)[C@@H](F)C1 [Compound 542B, 5-tert-butyl-N-{[3-(4-{[(3S,4R)-3-fluoro-1-methylpiperidin-4-yl]amino}-1-(2,2,2-trifluoroethyl)-1H-indol-2-yl)-1,2,4-oxadiazol-5-yl]methyl}-1-methyl-1H-pyrrole-2-carboxamide]
* (* = 0 μM ≤ SC150 < 0.1 μM)	CN1CC[C@@H](Nc2cccc3c2cc(-c2noc(CNC(=O)c4cc(C(C)(C)C)on4)n2)n3CC(F)(F)F)[C@@H](F)C1 [Compound 543B, 5-tert-butyl-N-{[3-(4-{[(3S,4R)-3-fluoro-1-methylpiperidin-4-yl]amino}-1-(2,2,2-trifluoroethyl)-1H-indol-2-yl)-1,2,4-oxadiazol-5-yl]methyl}-1,2-oxazole-3-carboxamide]
* (* = 0 μM ≤ SC150 < 0.1 μM)	COCC(C)(C)n1ccc(C(=O)NCc2nc(-c3cc4c(N[C@@H]5CCN(C)C[C@@H]5F)cccc4n3CC(F)(F)F)no2)n1 [Compound 547B, N-{[3-(4-{[(3S,4R)-3-fluoro-1-methylpiperidin-4-yl]amino}-1-(2,2,2-trifluoroethyl)-1H-indol-2-yl)-1,2,4-oxadiazol-5-yl]methyl}-1-(1-methoxy-2-methylpropan-2-yl)-1H-pyrazole-3-carboxamide]
* (* = 0 μM ≤ SC150 < 0.1 μM)	CN1CC[C@@H](Nc2cccc3c2cc(-c2noc(CNC(=O)c4ccn(C(C)(C)CF)n4)n2)n3CC(F)(F)F)[C@@H](F)C1 [Compound 548B, N-{[3-(4-{[(3S,4R)-3-fluoro-1-methylpiperidin-4-yl]amino}-1-(2,2,2-trifluoroethyl)-1H-indol-2-yl)-1,2,4-oxadiazol-5-yl]methyl}-1-(1-fluoro-2-methylpropan-2-yl)-1H-pyrazole-3-carboxamide]
